Experimental data published in US20240132513A1, “BENZAZEPINE DERIVATIVES, COMPOSITIONS, AND METHODS FOR TREATING COGNITIVE IMPAIRMENT” (AGENEBIO, INC., priority 2022, published 2024).
Entries after “also recorded” stand apart in the source; their conditions may differ.

What was measured:
[1] = tested on: aged-impaired (AI) rats; assay: Morris water maze behavioral task; assay type: in vivo, rat; details: 100 μg ICV
Method: The effects of 6,6 dimethyl-3-(3-hydroxypropyl)thio-1-(thiazol-2-yl)-6,7-dihydro-2-benzothiophen-4(5H)-one on the in vivo spatial memory retention of aged-impaired (AI) rats were assessed in a Morris water maze behavioral task. A water maze is a pool surrounded with a novel set of patterns relative to the maze.
Cognitively impaired aged rats were implanted unilaterally with a cannula into the lateral ventricle. Stereotaxic coordinates were 1.0 mm posterior to bregma, 1.5 mm lateral to midline, and 3.5 mm ventral to the skull surface. After about a week of recovery, the rats were pre-trained in a water maze for 2 days (6 trials per day) to locate a submerged escape platform hidden underneath the surface of the pool, in which the escape platform location varied from day to day. No intracerebroventricular (ICV) infusion was given during pre-training.
After pre-training, rats received ICV infusion of either 100 μg 6,6 dimethyl-3-(3-hydroxypropyl)thio-1-(thiazol-2-yl)-6,7-dihydro-2-benzothiophen-4(5H)-one (n=6) in 5 μl DMSO or vehicle DMSO (n=5) 40 min prior to water maze training and testing. Training consisted of 8 trials per day for 2 days where the hidden escape platform remained in the same location. Rats were given 60 seconds to locate the platform with a 60 seconds inter-trial interval. The rats were given a probe test (120 seconds) 24 hr. after the end of training where the escape platform was removed. During the training, there were 4 blocks, where each block had 4 training trials.
During a test trial 24 hr after training, the escape platform was removed. The search/swim pattern of the rats was used to measure whether the rats remember where the escape platform was located during pre-trial training in order to test for the long-term memory of the rats. In this trial, “target annulus” is a designated area 1.5 times the size of the escape platform around the area where the platform was located during pre-trial training. “Opposite annulus” is a control area of the same size as the size of the target annulus, which is located opposite to the target annulus in the pool. If the rats had good long-term memory, they would tend to search in the area surrounding the location where the platform was during the pre-trial training (i.e., the “target” annulus; and not the “opposite” annulus). “Time in annulus” is the amount of time in seconds that the rat spent in the target or opposite annulus area. “Number (#) of crossings” in annulus is the number of times the rat swam across the target or opposite annulus area.

[2] = tested on: aged-impaired (AI) rats; assay: Radial Arm Maze (RAM) behavioral task, spatial memory retention; assay type: in vivo, rat
Method: […] RAM behavioral tasks were performed on eight AI rats. All five treatment conditions (vehicle and four dosage levels) were tested on all eight rats.
The RAM apparatus used consisted of eight equidistantly-spaced arms. An elevated maze arm (7 cm width×75 cm length) projected from each facet of an octagonal center platform (30 cm diameter, 51.5 cm height). Clear side walls on the arms were 10 cm high and were angled at […] to form a trough. A food well (4 cm diameter, 2 cm deep) was located at the distal end of each arm. Froot Loops™ (Kellogg Company) were used as rewards. Blocks constructed of Plexiglas™ (30 cm height×12 cm width) could be positioned to prevent entry to any arm. Numerous extra maze cues surrounding the apparatus were also provided.
The AI rats were initially subjected to a pre-training test (Chappell et al. Neuropharmacology 37: 481-487, 1998). The pre-training test consisted of a habituation phase (4 days), a training phase on the standard win-shift task (18 days) and another training phase (14 days) in which a brief delay was imposed between presentation of a subset of arms designated by the experimenter (e.g., 5 arms available and 3 arms blocked) and completion of the eight-arm win-shift task (i.e., with all eight arms available).
In the habituation phase, rats were familiarized to the maze for an 8-minute session on four consecutive days. In each of these sessions, food rewards were scattered on the RAM, initially on the center platform and arms and then progressively confined to the arms. After this habituation phase, a standard training protocol was used, in which a food pellet was located at the end of each arm. Rats received one trial each day for 18 days. Each daily trial terminated when all eight food pellets had been obtained or when either 16 choices were made, or 15 minutes had elapsed. After completion of this training phase, a second training phase was carried out in which the memory demand was increased by imposing a brief delay during the trial. At the beginning of each trial, three arms of the eight-arm maze were blocked. Rats were allowed to obtain food on the five arms to which access was permitted during this initial “information phase” of the trial. Rats were then removed from the maze for 60 seconds, during which time the barriers on the maze were removed, thus allowing access to all eight arms. Rats were then placed back onto the center platform and allowed to obtain the remaining food rewards during this “retention test” phase of the trial. The identity and configuration of the blocked arms varied across trials.
The number of “errors” the AI rats made during the retention test phase was tracked. […]

[3] = molecular target: T1, GABAA α5 receptor (Rattus norvegicus, UniProt P19969); assay: GABAA α5 receptor occupancy with Ro 15-4513 tracer; assay type: in vivo, Long Evans rats; details: for Ro 15-4513 binding in hippocampus / Ro 15-4513 levels/binding in cerebellum: 0.01-10 mg/kg; for % RO (L-655,708 Method): young Long Evans rats
T1 construct: from tissue; host or cells: rat brain in vivo; hippocampus versus cerebellum
T1 sequence (P19969 32-464 limits assumed): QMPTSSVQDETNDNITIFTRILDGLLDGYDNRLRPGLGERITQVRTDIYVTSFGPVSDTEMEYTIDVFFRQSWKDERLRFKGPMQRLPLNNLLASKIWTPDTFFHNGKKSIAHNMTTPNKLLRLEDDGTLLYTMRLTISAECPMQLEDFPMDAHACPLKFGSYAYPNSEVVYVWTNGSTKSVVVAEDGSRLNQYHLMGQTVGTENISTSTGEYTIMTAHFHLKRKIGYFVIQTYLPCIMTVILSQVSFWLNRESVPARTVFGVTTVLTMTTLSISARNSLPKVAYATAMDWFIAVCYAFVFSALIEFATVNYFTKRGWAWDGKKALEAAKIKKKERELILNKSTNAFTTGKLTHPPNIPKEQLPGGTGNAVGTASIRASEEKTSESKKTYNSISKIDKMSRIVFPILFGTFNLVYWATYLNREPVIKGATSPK
Text: Food and water were available ad libitum.

[4] = molecular target: α5-containing GABAA R (Homo sapiens, UniProt P18507+P31644); details: EC20; cited from earlier work
Chain of α5-containing GABAA R (P31644 32-462): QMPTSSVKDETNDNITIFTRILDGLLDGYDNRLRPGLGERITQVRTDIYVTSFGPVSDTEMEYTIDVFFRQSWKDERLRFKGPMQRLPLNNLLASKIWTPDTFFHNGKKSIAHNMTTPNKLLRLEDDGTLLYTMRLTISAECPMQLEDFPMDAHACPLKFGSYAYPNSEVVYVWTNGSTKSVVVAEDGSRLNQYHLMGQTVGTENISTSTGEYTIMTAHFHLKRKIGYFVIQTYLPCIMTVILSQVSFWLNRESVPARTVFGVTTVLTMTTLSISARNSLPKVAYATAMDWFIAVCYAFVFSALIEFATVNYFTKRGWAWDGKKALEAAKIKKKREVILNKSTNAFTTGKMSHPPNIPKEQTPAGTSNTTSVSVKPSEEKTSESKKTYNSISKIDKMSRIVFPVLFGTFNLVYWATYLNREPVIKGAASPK
Chain of α5-containing GABAA R (P28472 26-473 partner): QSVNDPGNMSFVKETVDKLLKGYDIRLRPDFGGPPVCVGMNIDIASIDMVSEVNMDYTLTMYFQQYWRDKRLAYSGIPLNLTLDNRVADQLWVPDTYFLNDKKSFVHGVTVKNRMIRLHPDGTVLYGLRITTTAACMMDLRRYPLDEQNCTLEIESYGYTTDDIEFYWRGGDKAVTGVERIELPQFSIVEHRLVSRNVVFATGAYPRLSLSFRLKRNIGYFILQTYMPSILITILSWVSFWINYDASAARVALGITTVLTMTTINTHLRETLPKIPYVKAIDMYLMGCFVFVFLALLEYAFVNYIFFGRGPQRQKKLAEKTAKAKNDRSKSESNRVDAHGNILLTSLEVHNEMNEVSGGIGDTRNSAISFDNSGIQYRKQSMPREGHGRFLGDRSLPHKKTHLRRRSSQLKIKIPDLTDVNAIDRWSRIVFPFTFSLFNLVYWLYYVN
Chain of α5-containing GABAA R (P18507 40-475): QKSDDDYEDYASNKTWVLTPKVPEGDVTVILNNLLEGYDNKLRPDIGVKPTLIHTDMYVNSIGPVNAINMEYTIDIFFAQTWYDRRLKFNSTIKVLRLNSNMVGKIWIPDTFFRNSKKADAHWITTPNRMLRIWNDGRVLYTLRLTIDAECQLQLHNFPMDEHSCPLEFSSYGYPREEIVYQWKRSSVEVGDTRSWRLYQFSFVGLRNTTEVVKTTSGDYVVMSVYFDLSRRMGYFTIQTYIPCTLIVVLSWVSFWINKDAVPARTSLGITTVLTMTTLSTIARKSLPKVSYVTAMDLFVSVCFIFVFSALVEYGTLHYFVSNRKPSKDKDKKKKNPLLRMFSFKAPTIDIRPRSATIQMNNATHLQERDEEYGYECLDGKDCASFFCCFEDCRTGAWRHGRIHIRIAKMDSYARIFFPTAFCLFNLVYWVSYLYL

[5] = probe test 24 hr after training

SMILES | time to find the escape platform ([1]; beginning of training (block 1)) | time to find the escape platform ([1]; end of training (block 4)) | number of crossings of target annulus compared to opposite annulus [1, 5] | time in target annulus compared to opposite annulus [1, 5] | memory performance relative to vehicle control ([2]; 3 mg/kg, four-hour delay) | memory performance relative to vehicle control ([2]; 10 mg/kg, four-hour delay) | Ro 15-4513 binding in hippocampus ([3]; i.v.) | Ro 15-4513 levels/binding in cerebellum ([3]; i.v.) | GABAA α5 receptor occupancy ([3]; 10 mg/kg, i.v.) [%] | average no. of errors ± SEM, retention test ([2]; 3 mg/kg ip, two-hour delay) | memory performance relative to vehicle control ([2]; 3 mg/kg ip, two-hour delay) | % RO (L-655,708 Method) ([3]; 0.01 mg/kg, i.v.) [%] | % RO (L-655,708 Method) ([3]; 0.1 mg/kg, i.v.) [%] | % RO (L-655,708 Method) ([3]; 1 mg/kg, i.v.) [%] | % RO (L-655,708 Method) ([3]; 10 mg/kg, i.v.) [%] | GABAA α5 receptors occupied ([3]; at exposures behaviorally active in aged-impaired rats, hippocampus) | ED50 of receptor occupancy, ratio method ([3]; i.v.) [mg/kg] | receptor occupancy at 10 mg/kg ([3]; rat, iv, 10 mg/kg) [%] | α5 in vitro efficacy [4]
CC1(C)CC(=O)c2c(SCCCO)sc(-c3nccs3)c2C1 [6,6 dimethyl-3-(3-hydroxypropyl)thio-1-(thiazol-2-yl)-6,7-dihydro-2-benzothiophen-4(5H)-one] | about 24 seconds | about 9.6 seconds | crossed the “target annulus” more often | spent significantly more time in the target annulus |  |  |  |  |  |  |  |  |  |  |  |  |  |  | 
CCOC(=O)c1ncn2c1Cn1c(C)nnc1-c1cc(OC)ccc1-2 [ethyl 3-methoxy-7-methyl-9H-benzo[f]imidazo[1,5-a][1,2,4]tri] |  |  |  |  | significantly improved memory performance | significantly improved memory performance | reduced Ro 15-4513 binding in hippocampus | without affecting cerebellum levels of Ro 15-4513 | > 90 |  |  |  |  |  |  |  |  |  | 
COC(=O)c1c(-c2ccccc2)cnnc1-c1ccccc1 [methyl 3,5-diphenylpyridazine-4-carboxylate] |  |  |  |  |  |  | dose-dependently reduced Ro 15-4513 binding in hippocampus; also recorded: blocked the binding of Ro154513 in the hippocampus | without affecting cerebellum levels of Ro 15-4513; also recorded: did not affect binding of Ro15413 in the cerebellum |  | 1.31±0.40 | significantly improved memory performance | 19.2 | 16.4 | 38.5 | 110.0 | about 32% | 1.8 | > 90 | +27
